Assay results published in patent publication US20210061872A1 (PROTAGONIST THERAPEUTICS, published 2021).
Values belong to the molecule of their own block, whether it stands above or below them.

What was measured:
[1] = tested on: PV mice; details: cited from earlier work
[2] = tested on: Cynomolgus monkeys; experiment: PK-PD experiment, serum iron (Cobas IRON2); assay type: in vivo
Protocol: Iron content in plasma/serum was measured using a colorimetric assay on the Cobas c 111 according to instructions from the manufacturer of the assay (assay: IRON2: ACN 661).

[3] = tested on: patients with phlebotomy-dependent PV and splenomegaly; details: through week 32; 6 events with BAT; cited from earlier work
[4] = target: T1, human ferroportin (Homo sapiens, UniProt Q9NP59); experiment: ferroportin-GFP internalization/degradation assay in HEK293 cells; assay type: cell-based; details: read-out: Potency EC50
T1 construct: expressed in transfected cells
T1 sequence (Q9NP59 1-571): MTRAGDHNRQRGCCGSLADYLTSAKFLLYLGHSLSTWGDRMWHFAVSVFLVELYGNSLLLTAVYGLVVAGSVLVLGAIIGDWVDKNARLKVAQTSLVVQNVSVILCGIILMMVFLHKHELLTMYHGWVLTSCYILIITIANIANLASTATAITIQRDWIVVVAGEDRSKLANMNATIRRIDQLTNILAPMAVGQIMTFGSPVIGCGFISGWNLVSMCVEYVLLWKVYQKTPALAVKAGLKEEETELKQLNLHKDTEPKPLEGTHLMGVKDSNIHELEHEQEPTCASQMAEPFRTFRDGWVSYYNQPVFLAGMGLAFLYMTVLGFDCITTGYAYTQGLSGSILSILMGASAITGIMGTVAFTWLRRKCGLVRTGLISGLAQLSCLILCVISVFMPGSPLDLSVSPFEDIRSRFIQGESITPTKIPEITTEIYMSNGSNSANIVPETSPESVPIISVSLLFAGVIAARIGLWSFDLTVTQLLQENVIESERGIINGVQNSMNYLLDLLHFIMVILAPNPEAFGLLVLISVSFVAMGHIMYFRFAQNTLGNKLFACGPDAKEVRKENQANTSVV

[5] = tested on: Cynomolgus monkeys; experiment: repeat-dose study, 13 weekly SC doses, limiting erythropoiesis; assay type: in vivo
Source text: A cohort of animals (4/sex/group) were sacrificed on Day 92 (Main), and the remaining animals (2/sex/group) were sacrificed on Day 120 following a 35-day recovery period (Recovery).

[6] = tested on: PV patients; experiment: Phase 2 study in phlebotomy-requiring Polycythemia vera
[7] = tested on: healthy subjects; experiment: Phase I single dose study; assay type: in vivo, human; details: 62 healthy subjects
Source text: Compound A is a hepcidin mimetic agent in clinical studies for multiple blood disorders.

[8] = target: T2, human ferroportin (SLC40A1) fused in frame with GFP, stably expressed on HEK293 cells (human, UniProt Q9NP59 1-571); experiment: cell-based or functional assay
T2 sequence (looked up): T1 sequence (Q9NP59 1-571)

[9] = SC doses of 10 mg to 80 mg, various times after dosing

Molecule: minihepcidin: hepcidin mimetic administered to PV mice in Casu et al., Blood 2016 (DTHFPICIF)
hematocrit [1]: normalizes hematocrit
splenomegaly [1]: significantly reduces splenomegaly

Molecule: Isovaleric acid-DTHFPCIKF(K(PEG11-Palm))PRSK[Sar]CK-NH2 [Compound B]
time of maximal serum iron reduction ([2]; 2.93 mg/kg SC): about 12 hour
serum iron reduction, lower than pre-dose levels ([2]; 2.93 mg/kg SC, at about 12 hour): 12 fold
serum concentrations having maximum effect on serum iron ([2]; SC single dose): 50 to 125 ng/mL
serum concentrations that were effective on serum iron ([2]; SC single dose): 25 to 125 ng/mL

Molecule: N#CC[C@H](C1CCCC1)n1cc(-c2ncnc3[nH]ccc23)cn1 [ruxolitinib]
thromboembolic events [3]: 1 event

Further lines, with some results ahead:

EC50 [4]: > 10 µM
Molecule: CC[C@@H](C)[C@@H](NC(=O)[C@H](N)Cc1ccccc1)C(=O)N[C@H](CS)C(=O)N[C@@H](C(=O)N1CCC[C@@H]1C(=O)N[C@H](Cc1ccccc1)C(=O)N[C@H](Cc1c[nH]cn1)C(=O)N[C@@H](C(=O)N[C@H](CC(=O)O)C(N)=O)[C@H](C)O)[C@H](C)CC [RI-Mini Hepcidin, Hy-DPhe-DIle-DCys-DIle-DPro-DPhe-DHis-DThr-DAsp-NH2]

total bilirubin (tBili) ([5]; at ≥2 mg/kg/day, treatment period, FIG. 4): increase in total bilirubin
plasma concentrations of Compound A, lower end of range (below detectable) [6, 9]: < 2 ng/mL
plasma concentrations of Compound A, upper end of range [6, 9]: 866 ng/mL
platelet counts ([6]; over the course of treatment, FIG. 14): remained generally steady
leukocyte count ([6]; over the course of treatment, FIG. 16): remained generally steady
grade of most injection site reactions ([6]; transient, no patient discontinued): 1-2 grade
Molecule: CCCCCCCCCCCCCCCC(=O)N[C@@H](CCC(=O)NCCCC[C@@H]1NC(=O)[C@H]([C@@H](C)CC)NC(=O)[C@@H](NC(=O)[C@@H]2CCCN2C(=O)[C@H](Cc2ccccc2)NC(=O)[C@H](Cc2c[nH]cn2)NC(=O)[C@@H](NC(=O)[C@H](CC(=O)O)NC(=O)CC(C)C)[C@@H](C)O)CSSC[C@@H](C(=O)N[C@@H](CCCCN)C(N)=O)NC(=O)CNC(=O)[C@H](CCCCN)NC(=O)[C@H](CO)NC(=O)[C@H](CCCNC(=N)N)NC(=O)[C@@H]2CCCN2C(=O)[C@H](CCC(=O)O)NC(=O)[C@H](Cc2ccccc2)NC1=O)C(=O)O [Compound A]
platelets ([5]; 6 mg/kg/dose, male and female, FIG. 5): significantly elevated levels of platelets
bone marrow (femur, sternum) findings ([5]; at ≥2 mg/kg/dose): hematopoietic hypercellularity occurred in bone marrow
liver and spleen findings ([5]; at ≥2 mg/kg/dose): extramedullary hematopoiesis and hemosiderin deposition was observed in the liver and spleen
most frequent adverse events ([6]; 10-80 mg SC weekly): injection site reaction (ISR) reported by three patients
tolerability ([6]; 10-80 mg SC weekly): well tolerated
adverse events [7]: without significant adverse events

Potency EC50 (nM); ferroportin internalization/degradation, decrease in GFP fluorescence of ferroportin-GFP HEK293 cells [8]: > 10000 nM
B1: RI-Mini Hepcidin (peptide)
peptide: FICIPFHTD
modifications: all residues are D-amino acids (Hy-DPhe-DIle-DCys-DIle-DPro-DPhe-DHis-DThr-DAsp-NH2); C-terminal amide

Potency EC50 (nM); ferroportin internalization/degradation, decrease in GFP fluorescence of ferroportin-GFP HEK293 cells [8]: 712 nM
Molecule: H-DTHFPICIF-NH2 [Mini-Hepcidin]
